Values quoted from earlier work, collected in patent publication US20090114566A1, “METHOD OF UPGRADING HEAVY HYDROCARBON STREAMS TO JET PRODUCTS” (Chevron U.S.A. Inc., priority 2007, published 2009).
Like-named read-outs stand apart in the source and are kept apart here.

Tested on: rats

SMILES | LD50 (single oral dose to rats) [mg/kg] | LD50 (rat, in vivo, po) [mg/kg]
O=C(O)[C@H](O)[C@@H](O)[C@H](O)[C@H](O)CO [gluconic acid] | 10380 | –
COCC(=O)O [methoxy-acetic acid] | – | 3200
O=CC(=O)O [glyoxylic, glyoxylic acid] | – | 3000
CC(O)C(=O)O (stereo not drawn) [lactic acid] | 3543 | –
CCOCC(=O)O [ethoxy-acetic acid] | – | 1292
O=C(O)/C=C/C(=O)O [fumaric acid] | – | 10700
O=C(O)CC(O)C(=O)O (stereo not drawn) [malic acid] | 1600 | –
O=C(O)CC(S)C(=O)O (stereo not drawn) [mercapto-succinic acid] | – | 800
O=C(O)CCC(=O)O [succinic acid] | – | 500
